Laboratory results: patent US20250154611A1, “SYSTEMS AND METHODS TO DETECT STEM CELL STRESS AND USES THEREOF” (Wayne State University, priority 2014, published 2025)

Experiments:
p38MAPK = p38MAPK (Mus musculus, UniProt P47811); assay: phospho-p38 western blot in mESCs under 200 mM sorbitol; assay type: cell-based; conditions: 200 mM, persisted throughout 1 hr
Protocol: FIG. 14. […] Blots are representative of triplicate experiments. Phospho-proteins and their loading controls are grouped between black lines.
FIG. 15. […] Blots are representative of triplicate experiments.
Hyperosmotic activation of signaling enzymes. […] Zhong, 2010; Xie, 2011. […] To determine the kinetics of activation of these five kinases in the described system, mESCs were treated with 200 mM sorbitol for 1 hr. Expression levels of the activated (i.e., phosphorylated) enzymes were assayed by western blot analysis (FIG. 14), including phospho-p38MAPK, phospho-JNK, phospho-MEK1/2, and phospho-AKT (the downstream effector of PI3K signaling).
Efficacy of enzyme inhibitors.

TSCs = assay: qPCR of terminal differentiation markers in TSCs with or without 100 mM sorbitol; assay type: cell-based, mouse; conditions: 0.5% O2, 7 days
Protocol: . TSCs were cultured in 0-20% O2 for 0-7 days±FGF4 as indicated, rapidly frozen, and assayed for free ATP (n=4). (FIG. 6B) At 7 days, FGF4 absence increased terminal differentiation markers 8-20 fold at 20% O2, but lower differentiation levels at 0.5% O2 were not increased by a sorbitol dose, which induces high levels of differentiation at 20% O2. TSCs were cultured for 7 days±FGF4 at 20% or 0.5% O2±100 mM sorbitol. mRNA was purified and reverse transcribed, then analyzed for relative amounts of 3 terminal differentiation markers that were normalized to housekeeping mRNAs. Triplicate experiments are shown, with mean±s.e.m. (error bars). […]. (FIG. 6D) Correspondingly, at 7 days, mitochondrial Δψm increased only at O2≥2% with FGF4 removal. TSCs were cultured for 7 days at 20% O2 (a,d), 2% O2 (b,e), or 0.5% O2 (c,f) with FGF4 (a-c) or without FGF4 (d-f) and stained with JC1. Micron bar in micrograph (a) indicates […]. Green fluorescence indicates monomeric stain and low membrane charge and red fluorescence indicates polymeric stain and high charge. For original color fluorescence figures see (Xie, Stem Cell Research, 13:478, 2014 (Xie, 2014)).
RNA isolation and quantitative reverse transcription-PCR (qRT-PCR). […] Briefly, DNase-treated total RNA was isolated following cDNA preparation using QuantiTect Reverse Transcription Kit […] (Qiagen). […]

Rex1-RFP mESCs = assay: Flow cytometry of Rex1-RFP reporter mESCs (bright, intermediate, dim subpopulations); assay type: cell-based, mouse; conditions: 3 days; for Bright subpopulation / Dim subpopulation / Intermediate + Dim / Intermediate subpopulation: LIF+
Protocol: . Rex1-RFP mESCs expressing Rex1 promoter reporter were cultured in 12-well plates until 30% confluent, treated with 0 mM, 200 mM, and 300 mM sorbitol for 3 days, trypsinized, and cell suspensions were assayed by flow cytometry. Arbitrary thresholds (vertical red lines) were drawn at 5×10^3 on the X-axis between the middle of the two peaks and at 2 standard deviations above the mean of the parental (before infection) dim population shown in the bottom panel. Areas in parental dim, intermediate dim, and bright were defined by the 2 vertical red lines and were quantified as pixels using Image J from data in (FIG. 25A) to give histograms in (FIG. 25B).
FIGS. 26A and 26B. Viable Rex1 promoter reporter responds with stress treatment in a dose-dependent manner in flow cytometry assay. mESCs expressing Rex1 promoter reporter were cultured in 12-well plates till 30% confluence. Cells were then treated with 200-300 mM of sorbitol in 25 mM increments for 3 days. After trypsinization, the cell suspensions were subjected for flow cytometry assay. An arbitrary threshold was drawn at 5×10^3 on the x-axis and another near the low point between the bright peak and the dimmer peak to its left (FIG. 26A). […] Intermediate and bright groups were also defined by the two vertical red lines. Area sizes of the two peaks were quantified using Image J. The histogram bars (FIG. 26B) are derived by three independent experiments, one of which is shown in (FIG. 26A), errors bars showing s.e.m., One-way ANOVA was performed followed by Dunnett's post hoc test using 0 mM as reference for parental dim, intermediate dim, and bright separately.
Flow cytometric analysis of mESCs expressing pluripotency reporters. Fluorescence determination by the plate reader reported an averaged biochemical result from a population of cells inside the tissue culture vessel. […] This time point was designated as time zero. The cells were then treated with different sorbitol concentrations for 1-3 days. At each time point, cells were trypsinized and re-suspended in ice-cold D-PBS for flow cytometry assay using an LSR Fortessa flow cytometer (BD biosciences) and the FACS Diva Software version 7.0 (BD biosciences). Non-stressed mESCs that express Oct4-copGFP and/or Rex1-mApple and the non-modified, parental mESCs were used to set up the parameters that define the fluorescent cells and non-fluorescent cells.
From the histogram of FACS, two peaks are seen. The right peak represents the bright fluorescent potent ESCs. The left peak represents the dim fluorescent non-potent ESCs. An arbitrary vertical line is drawn here at the 5×10^3 position on the PE-A axis to separate the low potency ESCs. The peak areas were calculated using Image J by counting the area pixels.

SAPK = conditions: 100 mM, 20% O2, despite FGF4; cited from earlier work

Chain of p38MAPK (P47811 whole entry): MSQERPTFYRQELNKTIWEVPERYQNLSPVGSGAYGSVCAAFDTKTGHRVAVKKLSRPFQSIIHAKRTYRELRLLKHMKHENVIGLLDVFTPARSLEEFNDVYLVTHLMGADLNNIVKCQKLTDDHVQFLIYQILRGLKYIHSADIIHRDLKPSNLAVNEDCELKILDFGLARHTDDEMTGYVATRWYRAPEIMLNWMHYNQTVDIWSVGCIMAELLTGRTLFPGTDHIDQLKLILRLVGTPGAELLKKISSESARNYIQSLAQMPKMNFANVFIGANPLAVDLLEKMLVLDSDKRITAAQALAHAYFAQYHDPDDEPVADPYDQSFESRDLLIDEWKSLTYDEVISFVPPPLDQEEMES

Compound: OC[C@@H](O)[C@@H](O)[C@H](O)[C@@H](O)CO [sorbitol]
- time at which activated p38MAPK was first detected (p38MAPK): 10 min
- mRNA expression of terminal differentiation markers PL1, Plf, synTa (TSCs): did not increase
- decrease in high activity Rex1 subpopulation (Rex1-RFP mESCs; 0 to 300 mM): 20%
- decrease in the bright group (Rex1-RFP mESCs; 0 to 300 mM): 21.5%
- increase in parental dim ESCs (Rex1-RFP mESCs; 0 to 300 mM): 15.8%
- increase in the low Rex1 activity subpopulation (Rex1-RFP mESCs; 0 to 300 mM): 2.8 fold
- total change toward intensity decrease (Rex1-RFP mESCs; 0 to 300 mM): 40.4 % of cells
- Bright subpopulation (Rex1-RFP mESCs; 200 mM): 77.1%
- Dim subpopulation (Rex1-RFP mESCs; 200 mM): 12.2%
- Intermediate + Dim (Rex1-RFP mESCs; 200 mM): 22.9%
- Intermediate subpopulation (Rex1-RFP mESCs; 200 mM): 10.7%
- Bright subpopulation (Rex1-RFP mESCs; 225 mM): 75.6%
- Dim subpopulation (Rex1-RFP mESCs; 225 mM): 13.7%
- Intermediate + Dim (Rex1-RFP mESCs; 225 mM): 24.4%
- Intermediate subpopulation (Rex1-RFP mESCs; 225 mM): 10.7%
- Bright subpopulation (Rex1-RFP mESCs; 250 mM): 72%
- Dim subpopulation (Rex1-RFP mESCs; 250 mM): 16.6%
- Intermediate + Dim (Rex1-RFP mESCs; 250 mM): 28%
- Intermediate subpopulation (Rex1-RFP mESCs; 250 mM): 11.4%
- Bright subpopulation (Rex1-RFP mESCs; 275 mM): 71.9%
- Dim subpopulation (Rex1-RFP mESCs; 275 mM): 17.1%
- Intermediate + Dim (Rex1-RFP mESCs; 275 mM): 28.1%
- Intermediate subpopulation (Rex1-RFP mESCs; 275 mM): 11%
- Bright subpopulation (Rex1-RFP mESCs; 300 mM): 61.8+/−3.7%
- Dim subpopulation (Rex1-RFP mESCs; 300 mM): 24.4+/−2.9%
- Intermediate + Dim (Rex1-RFP mESCs; 300 mM): 28.1%
- Intermediate subpopulation (Rex1-RFP mESCs; 300 mM): 13.8+/−2.1%
- Bright subpopulation (Rex1-RFP mESCs; 300 mM, listed as Sorbitol): 61.8%
- Dim subpopulation (Rex1-RFP mESCs; 300 mM, listed as Sorbitol): 24.4%
- Intermediate subpopulation (Rex1-RFP mESCs; 300 mM, listed as Sorbitol): 13.8%
- increase in intermediate dim ESCs (Rex1-RFP mESCs; to 300 mM): 3.1%
- SAPK increase (SAPK): 5 fold
